Results: patent publication US5032597A, “Method of using phenylquinolinecarboxylic acids and derivatives for lymthoid leukemia treatment in a mammal” (priority 1987, dated 1991)
Values after ≈ are worked out from the molar mass of the structure shown. Values joined by “and” are separate entries in the source; they are usually repeats but may differ in a detail not shown here. Equal entries are not always repeated. Structures can show the parent of a compound that is named as a salt. Where two headings read alike, the source gives them in different places.

What was measured:
L1210 leukemia = test: Lymphoid Leukemia L1210, survival of tumored mice; assay type: in vivo, CD2F1 mice; conditions: for response vs control in vivo at 50 mg/kg: 50 mg/kg i.p.
Outline: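 Male CD2 F1 mice, six per group, received 10^5 L1210 cells i.p. on day 0. Compounds in hydroxypropylcellulose, saline/Tween 80 or saline were given i.p. at various doses once daily on days 1-9, with vehicle controls.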

[1] = test system: human colon carcinoma cells HCT-15; test: Human colon tumor test in vitro, HCT-15 cell growth inhibition; assay type: cell-based; conditions: for IC50: Homo sapiens, HCT-15, 72 h, read-out: in vitro HCT-15 ID50 (50 percent inhibition of number of doublings); for in vitro HCT-15 ID50 (50 percent inhibition of number of doublings): 4320 min
Method: The compound of this invention were also tested for their ability to inhibit the growth of human colon carcinoma cells in vitro.
The human colon carcinoma cells, designated HCT-15, were derived from a specimen of an adenocarcinoma of human colon removed during surgery. The cells were grown in Roswell Park Medical Institute (RPMI) Medium 1640 supplemented with 10% heat inactivated fetal calf serum, penicillin (100 units/ml), streptomycin (100 μg/ml), gentamicin (20 μg/ml), fungizone (25 μg/ml), 0.075 percent sodium bicarbonate, […] 4-(2-hydroxyethyl)-1-piperazineethanesulfonic acid and […] N-tris(hydroxymethyl)methylglycine. […] On day 1 cells from sample dishes were harvested using trypsin (0.25%) treatment and counted with a hemocytometer to determine the number of cells per dish at the time of the addition of the compounds. Compounds of this invention were added in varying concentrations to other cultures. On day 4, treated and control cultures were harvested by trypsin treatment and the number of cells was determined. The number of doublings for the control cells was determined from the cell numbers on days 1 and 4. The ID50, the concentration of compound required to inhibit by 50 percent the number of doublings, was then calculated from the dose-response curve in which cell numbers were plotted on log-log paper against compound concentrations in micrograms per ml.

[2] = HCT-15 cells, compound day 1 to day 4
[3] = Mus musculus, L1210, ip, 720 h, nonoptimal Q1DX9 instead of Q3DX9, read-out: L1210 Leukemia % T/C (median survival time)
[4] = Mus musculus, L1210, ip, 720 h, read-out: L1210 Leukemia % T/C (median survival time)
[5] = Mus musculus, L1210, ip, 720 h, 25 mg/kg i.p., nonoptimal Q1DX9 instead of Q3DX9, read-out: L1210 Leukemia % T/C (median survival time)
[6] = Mus musculus, L1210, ip, 720 h, 100 mg/kg i.p., read-out: L1210 Leukemia % T/C (median survival time)
[7] = Mus musculus, L1210, ip, 720 h, 75 mg/kg i.p., read-out: L1210 Leukemia % T/C (median survival time)
[8] = Mus musculus, L1210, ip, 720 h, 37.5 mg/kg i.p., nonoptimal Q1DX9 instead of Q3DX9, read-out: L1210 Leukemia % T/C (median survival time)

Cc1c(-c2ccc(Cc3ccccc3)cc2)nc2ccc(Cl)cc2c1C(=O)O [Example 112]
response vs control in vivo at 25 mg/kg (L1210 leukemia; Mus musculus, L1210, ip, 720 h, 25 mg/kg i.p., read-out: L1210 Leukemia % T/C (median survival time)): 128% | IC50 [1, 2]: < 0.5 µg/mL

COc1ccc(-c2ccc(-c3nc4ccc(Cl)cc4c(C(=O)O)c3C)cc2)cc1 [Example 114]
response vs control in vivo at 50 mg/kg (L1210 leukemia; [3]): 121% | in vitro HCT-15 ID50 (50 percent inhibition of number of doublings) [1, 2]: 1.30 µg/mL

Cc1c(-c2ccc(-c3ccccc3F)cc2)nc2ccc(F)cc2c1C(=O)[O-].[Na+] [Example 118, Sodium 2-(2'-Fluoro-1,1'-biphenyl-4-yl)-6-fluoro-3-methylquinoline-4-carboxylate]
response vs control in vivo at 25 mg/kg (L1210 leukemia; Mus musculus, L1210, ip, 720 h, read-out: L1210 Leukemia % T/C (median survival time), 25 mg/kg i.p.): 179% | IC50 [1]: 0.017 µg/mL

Cc1c(-c2ccc(Oc3ccc(Cl)cc3)cc2)nc2ccc(F)cc2c1C(=O)O [Example 119]
L1210 Leukemia % T/C (median survival time) (L1210 leukemia; 18 mg/kg i.p.): 170% | in vitro HCT-15 ID50 (50 percent inhibition of number of doublings) [1, 2]: < 0.50 µg/mL

Cc1c(-c2ccc(-c3ccc(F)cc3)cc2)nc2ccc(F)cc2c1C(=O)O [Example 121]
response vs control in vivo at 18 mg/kg (L1210 leukemia; Mus musculus, L1210, ip, 720 h, 18 mg/kg i.p., read-out: L1210 Leukemia % T/C (median survival time)): 175% | in vitro HCT-15 ID50 (50 percent inhibition of number of doublings) [1, 2]: < 0.50 µg/mL

CCc1ccc(-c2ccc(-c3nc4ccc(F)cc4c(C(=O)O)c3C)cc2)cc1 [Example 130]
response vs control in vivo at 50 mg/kg (L1210 leukemia; [4]): 132% | in vitro HCT-15 ID50 (50 percent inhibition of number of doublings) [1, 2]: > 1.0 µg/mL

Cc1c(-c2ccc(C3CCCCC3)cc2)nc2c(Br)cc(Br)cc2c1C(=O)O [Example 136]
response vs control in vivo at 25 mg/kg (L1210 leukemia; [5]): 103% | in vitro HCT-15 ID50 (50 percent inhibition of number of doublings) [1, 2]: > 0.50 µg/mL

Cc1c(-c2ccc(-c3ccccc3)cc2)nc2cc(Cl)c(Cl)cc2c1C(=O)O [Example 137]
response vs control in vivo at 50 mg/kg (L1210 leukemia; [3]): 107% | in vitro HCT-15 ID50 (50 percent inhibition of number of doublings) [1, 2]: > 5.00 µg/mL

Cc1c(-c2ccc(-c3ccccc3)cc2)nc2cc(Cl)ccc2c1C(=O)O [Example 139]
response vs control in vivo at 100 mg/kg (L1210 leukemia; [6]): 146% | in vitro HCT-15 ID50 (50 percent inhibition of number of doublings) [1, 2]: < 5.00 µg/mL

CCc1ccc2nc(-c3ccc(-c4ccccc4)cc3)c(C)c(C(=O)O)c2c1 [Example 141]
L1210 Leukemia % T/C (median survival time) (L1210 leukemia; 75 mg/kg i.p.): 139% | in vitro HCT-15 ID50 (50 percent inhibition of number of doublings) [1, 2]: < 0.50 µg/mL

Cc1ccc2c(C(=O)O)c(C)c(-c3ccc(-c4ccccc4)cc3)nc2c1 [Example 145]
response vs control in vivo at 75 mg/kg (L1210 leukemia; [7]): 132% | IC50 [1, 2]: < 0.5 µg/mL

Cc1cc2c(C(=O)O)c(C)c(-c3ccc(-c4ccccc4)cc3)nc2cc1Cl [Example 148]
response vs control in vivo at 37.5 mg/kg (L1210 leukemia; [8]): 102% | in vitro HCT-15 ID50 (50 percent inhibition of number of doublings) [1, 2]: > 5.00 µg/mL

CSc1ccc2nc(-c3ccc(-c4ccccc4)cc3)c(C)c(C(=O)O)c2c1 [Example 161]
response vs control in vivo at 100 mg/kg (L1210 leukemia; [6]): 148% | IC50 [1, 2]: > 1 µg/mL

Cc1ccc(-c2ccc(-c3nc4ccc(F)c(Cl)c4c(C(=O)O)c3C)cc2)cc1 [Example 168]
L1210 Leukemia % T/C (median survival time) (L1210 leukemia; 100 mg/kg i.p.): 148% | IC50 [1, 2]: 0.04 µg/mL (≈ 0.0986 µM)

Cc1c(-c2ccc(-c3ccccc3)cc2)nc2ccc(Cl)cc2c1C(=O)O [Example 171]
L1210 Leukemia % T/C (median survival time) (L1210 leukemia; 100 mg/kg i.p.): 164% | in vitro HCT-15 ID50 (50 percent inhibition of number of doublings) [1, 2]: < 0.50 µg/mL

Cc1c(-c2ccc(Sc3ccccc3)cc2)nc2ccc(Cl)cc2c1C(=O)O [Example 173]
response vs control in vivo at 25 mg/kg (L1210 leukemia; [5]): 122% | in vitro HCT-15 ID50 (50 percent inhibition of number of doublings) [1, 2]: < 0.50 µg/mL

Cc1c(-c2ccc(-c3ccccc3F)cc2)nc2ccc(F)cc2c1C(=O)O [Example 176]
response vs control in vivo at 37 mg/kg (L1210 leukemia; Mus musculus, L1210, ip, 720 h, 37 mg/kg i.p., read-out: L1210 Leukemia % T/C (median survival time)): 175% | in vitro HCT-15 ID50 (50 percent inhibition of number of doublings) [1, 2]: < 0.50 µg/mL and 0.41 µg/mL

Cc1c(-c2ccc(-c3ccc(F)cc3)cc2)nc2ccc(F)cc2c1C(=O)O [Example 177]
L1210 Leukemia % T/C (median survival time) (L1210 leukemia; 37.5 mg/kg i.p.): 172% | in vitro HCT-15 ID50 (50 percent inhibition of number of doublings) [1, 2]: < 0.50 µg/mL

CCCCCCc1ccc(-c2nc3ccc(F)cc3c(C(=O)O)c2C)cc1 [Example 180]
response vs control in vivo at 18 mg/kg (L1210 leukemia; Mus musculus, L1210, ip, 720 h, 18 mg/kg i.p., nonoptimal Q1DX9 instead of Q3DX9, read-out: L1210 Leukemia % T/C (median survival time)): 101% | in vitro HCT-15 ID50 (50 percent inhibition of number of doublings) [1, 2]: < 0.50 µg/mL

Cc1c(-c2ccc(C3CCCCC3)cc2)nc2ccc(F)cc2c1C(=O)O [Example 181]
response vs control in vivo at 37.5 mg/kg (L1210 leukemia; [8]): 108% | in vitro HCT-15 ID50 (50 percent inhibition of number of doublings) [1, 2]: < 0.50 µg/mL

O=C(O)c1cc(-c2ccc(Oc3ccc(F)cc3)cc2)nc2ccc(F)cc12 [Example 187]
response vs control in vivo at 75 mg/kg (L1210 leukemia; [7]): 131% | IC50 [1, 2]: < 0.5 µg/mL

Cc1c(-c2ccc(-c3ccc(F)cc3F)cc2)nc2ccc(F)cc2c1C(=O)O [Example 188]
response vs control in vivo at 12.5 mg/kg (L1210 leukemia; Mus musculus, L1210, ip, 720 h, 12.5 mg/kg i.p., read-out: L1210 Leukemia % T/C (median survival time)): 187% | IC50 [1, 2]: < 0.01 µg/mL

Cc1c(-c2ccc(-c3ccc(O)cc3)cc2)nc2ccc(Cl)cc2c1C(=O)O [Example 192, 6-Chloro-2-(4'-hydroxy-1,1'biphenyl-4-yl)-3-methyl-4-quinolinecarboxylic acid]
response vs control in vivo at 200 mg/kg (L1210 leukemia; Mus musculus, L1210, ip, 720 h, 200 mg/kg i.p., read-out: L1210 Leukemia % T/C (median survival time)): 166% | IC50 [1, 2]: > 1 µg/mL

Cc1c(-c2ccc(-c3ccccc3F)cc2)nc2ccc(F)cc2c1C(=O)OCCN(C)C [Example 197, 6-Fluoro-2-(2'-fluoro-1,1'-biphenyl-4-yl)-3-methyl-[(2dimethylamino)ethyl]ester-4-quinolinecarboxylic acid]
response vs control in vivo at 50 mg/kg (L1210 leukemia; [4]): 179% | in vitro HCT-15 ID50 (50 percent inhibition of number of doublings) [1, 2]: < 0.01 µg/mL

Cc1c(-c2ccc(-c3ccccc3F)cc2)nc2ccc(F)cc2c1C(=O)OCCN(C)C [Example 198, [6-Fluoro-2-(2'-fluoro-1,1'-biphenyl-4-yl)3-methyl-[(2-dimethylamino)ethyl]ester-4-quinolinecarboxylic acid] hydrochloride]
response vs control in vivo at 100 mg/kg (L1210 leukemia; [6]): 178% | in vitro HCT-15 ID50 (50 percent inhibition of number of doublings) ([1]; HCT-15 cells, compound day 1 to day 4, hydrochloride): < 10^-3 μg/ml

CCN(CC)CCOC(=O)c1c(C)c(-c2ccc(-c3ccccc3F)cc2)nc2ccc(F)cc12 [Example 201]
response vs control in vivo at 100 mg/kg (L1210 leukemia; [6]): 175% | IC50 [1, 2]: > 1 µg/mL

Cc1c(-c2ccc(-c3ccccc3)c(F)c2)nc2ccc(F)cc2c1C(=O)O [Example 207]
L1210 Leukemia % T/C (median survival time) (L1210 leukemia; 25 mg/kg i.p.): 154% | IC50 [1, 2]: 0.02 µg/mL (≈ 0.0533 µM)

Cc1c(-c2ccc(-c3ccccc3)c(F)c2)nc2ccc(F)cc2c1C(=O)O [Example 210]
L1210 Leukemia % T/C (median survival time) (L1210 leukemia; 25 mg/kg i.p.): 177% | in vitro HCT-15 ID50 (50 percent inhibition of number of doublings) [1, 2]: .03 µg/mL
